The record followed here is ChEMBL document CHEMBL5291721, “A preclinical secondary pharmacology resource illuminates target-adverse drug reaction associations of marketed drugs” (Nat Commun, 2023).

Molecules are shown by their SMILES.

Experiment [1] addresses T1, Muscarinic acetylcholine receptor M1 (Homo sapiens, UniProt P11229).
T1 sequence (P11229 whole entry): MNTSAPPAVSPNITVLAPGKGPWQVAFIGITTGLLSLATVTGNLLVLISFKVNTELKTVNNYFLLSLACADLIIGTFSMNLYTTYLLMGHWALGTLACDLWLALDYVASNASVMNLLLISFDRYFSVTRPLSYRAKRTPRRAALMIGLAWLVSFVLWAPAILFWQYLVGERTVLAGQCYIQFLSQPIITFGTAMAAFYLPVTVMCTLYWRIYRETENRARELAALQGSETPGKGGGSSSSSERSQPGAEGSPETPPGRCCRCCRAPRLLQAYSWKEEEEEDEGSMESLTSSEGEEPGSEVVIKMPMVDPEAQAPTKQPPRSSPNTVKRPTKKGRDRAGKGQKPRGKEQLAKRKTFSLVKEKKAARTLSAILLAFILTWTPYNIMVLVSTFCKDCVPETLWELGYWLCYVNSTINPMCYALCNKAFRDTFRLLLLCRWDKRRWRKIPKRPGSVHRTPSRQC
The format is functional, cell-based.

Experiment [2] addresses T1, Muscarinic acetylcholine receptor M1. The format is functional, cell-based. This is another data set of the same source.
For the next experiment, the target named is Histamine H1 receptor (Homo sapiens, UniProt P35367).
Sequence of Histamine H1 receptor (P35367 whole entry): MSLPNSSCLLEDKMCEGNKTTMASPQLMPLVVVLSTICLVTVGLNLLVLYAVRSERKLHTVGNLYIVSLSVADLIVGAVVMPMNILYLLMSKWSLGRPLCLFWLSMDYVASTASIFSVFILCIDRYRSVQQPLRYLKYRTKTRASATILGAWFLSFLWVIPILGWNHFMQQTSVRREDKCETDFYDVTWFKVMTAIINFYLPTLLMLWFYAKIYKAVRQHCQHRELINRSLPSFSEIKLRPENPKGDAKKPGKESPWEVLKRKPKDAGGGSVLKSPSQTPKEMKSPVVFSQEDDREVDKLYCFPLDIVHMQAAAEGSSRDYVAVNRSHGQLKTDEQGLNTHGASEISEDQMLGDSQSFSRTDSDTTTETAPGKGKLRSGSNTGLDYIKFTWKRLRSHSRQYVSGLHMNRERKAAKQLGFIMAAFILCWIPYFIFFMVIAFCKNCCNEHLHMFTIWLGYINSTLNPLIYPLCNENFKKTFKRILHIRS
Another experiment addresses T2, Adenosine receptor A3 (Homo sapiens, UniProt P0DMS8).
T2 sequence (P0DMS8 whole entry): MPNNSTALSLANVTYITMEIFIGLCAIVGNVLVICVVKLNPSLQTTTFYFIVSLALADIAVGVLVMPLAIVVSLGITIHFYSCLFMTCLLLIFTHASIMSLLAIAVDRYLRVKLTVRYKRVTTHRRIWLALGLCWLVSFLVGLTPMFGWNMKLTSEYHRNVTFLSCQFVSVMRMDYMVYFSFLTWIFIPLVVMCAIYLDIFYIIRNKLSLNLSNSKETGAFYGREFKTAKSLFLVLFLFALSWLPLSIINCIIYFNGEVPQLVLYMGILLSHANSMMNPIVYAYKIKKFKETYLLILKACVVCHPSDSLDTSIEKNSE

Experiment [3] deals with T3, Prostaglandin G/H synthase 1 (Rattus norvegicus, UniProt Q63921).
T3 sequence (Q63921 whole entry): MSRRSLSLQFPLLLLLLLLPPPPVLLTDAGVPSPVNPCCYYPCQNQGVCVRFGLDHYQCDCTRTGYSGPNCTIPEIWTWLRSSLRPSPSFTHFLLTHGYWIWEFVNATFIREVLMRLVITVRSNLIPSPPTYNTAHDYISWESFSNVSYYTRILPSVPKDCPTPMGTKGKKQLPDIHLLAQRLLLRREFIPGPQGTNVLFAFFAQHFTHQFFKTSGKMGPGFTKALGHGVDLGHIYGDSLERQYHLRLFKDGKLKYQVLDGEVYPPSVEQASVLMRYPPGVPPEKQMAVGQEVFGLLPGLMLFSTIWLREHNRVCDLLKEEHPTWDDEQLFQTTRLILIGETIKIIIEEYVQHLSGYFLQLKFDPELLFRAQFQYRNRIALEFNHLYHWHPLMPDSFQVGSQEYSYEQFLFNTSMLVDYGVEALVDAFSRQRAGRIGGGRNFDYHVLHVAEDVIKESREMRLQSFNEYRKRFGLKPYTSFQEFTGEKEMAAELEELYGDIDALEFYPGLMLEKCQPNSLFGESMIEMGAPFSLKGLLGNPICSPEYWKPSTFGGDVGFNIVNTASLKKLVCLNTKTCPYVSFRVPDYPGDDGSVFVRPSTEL
In kind it is functional.

The target in experiment [4] is T4, Alpha-2B adrenergic receptor (Homo sapiens, UniProt P18089).
T4 sequence (P18089 whole entry): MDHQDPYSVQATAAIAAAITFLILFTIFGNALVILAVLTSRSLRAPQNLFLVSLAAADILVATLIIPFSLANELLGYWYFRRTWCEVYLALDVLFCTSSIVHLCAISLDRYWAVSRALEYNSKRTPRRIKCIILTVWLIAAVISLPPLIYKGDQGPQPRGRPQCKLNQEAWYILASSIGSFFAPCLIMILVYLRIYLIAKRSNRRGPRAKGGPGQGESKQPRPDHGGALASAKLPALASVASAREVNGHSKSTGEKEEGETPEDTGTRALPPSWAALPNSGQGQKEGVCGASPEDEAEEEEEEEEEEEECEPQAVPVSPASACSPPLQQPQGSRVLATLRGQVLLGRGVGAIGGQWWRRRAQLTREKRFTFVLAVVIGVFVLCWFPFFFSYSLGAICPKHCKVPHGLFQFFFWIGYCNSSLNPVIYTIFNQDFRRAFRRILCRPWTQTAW

Experiment [5] addresses Gamma-aminobutyric acid receptor subunit alpha-1 (Rattus norvegicus, UniProt P62813).
Experiment [6] concerns the target Delta-type opioid receptor (Homo sapiens, UniProt P41143).
Experiment [7] deals with T1, Muscarinic acetylcholine receptor M1. The format is functional.
Experiment [8] has as its target T5, Muscarinic acetylcholine receptor M2 (Homo sapiens, UniProt P08172).
T5 sequence (P08172 whole entry): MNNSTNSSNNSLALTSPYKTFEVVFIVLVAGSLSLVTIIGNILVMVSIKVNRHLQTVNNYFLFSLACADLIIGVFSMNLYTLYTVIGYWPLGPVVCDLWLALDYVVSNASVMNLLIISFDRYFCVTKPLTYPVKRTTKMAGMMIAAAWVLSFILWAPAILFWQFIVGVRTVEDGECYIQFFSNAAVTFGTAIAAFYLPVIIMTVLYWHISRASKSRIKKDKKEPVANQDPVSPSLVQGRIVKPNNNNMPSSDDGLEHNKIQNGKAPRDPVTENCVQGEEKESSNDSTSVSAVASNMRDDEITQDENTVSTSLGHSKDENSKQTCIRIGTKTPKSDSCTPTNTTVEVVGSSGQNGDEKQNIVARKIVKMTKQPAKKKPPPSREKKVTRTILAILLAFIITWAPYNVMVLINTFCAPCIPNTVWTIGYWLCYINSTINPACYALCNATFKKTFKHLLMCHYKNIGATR
The format is functional, cell-based.
Note: assay procedure not described here.

Sequence of Gamma-aminobutyric acid receptor subunit alpha-1 (P62813 whole entry): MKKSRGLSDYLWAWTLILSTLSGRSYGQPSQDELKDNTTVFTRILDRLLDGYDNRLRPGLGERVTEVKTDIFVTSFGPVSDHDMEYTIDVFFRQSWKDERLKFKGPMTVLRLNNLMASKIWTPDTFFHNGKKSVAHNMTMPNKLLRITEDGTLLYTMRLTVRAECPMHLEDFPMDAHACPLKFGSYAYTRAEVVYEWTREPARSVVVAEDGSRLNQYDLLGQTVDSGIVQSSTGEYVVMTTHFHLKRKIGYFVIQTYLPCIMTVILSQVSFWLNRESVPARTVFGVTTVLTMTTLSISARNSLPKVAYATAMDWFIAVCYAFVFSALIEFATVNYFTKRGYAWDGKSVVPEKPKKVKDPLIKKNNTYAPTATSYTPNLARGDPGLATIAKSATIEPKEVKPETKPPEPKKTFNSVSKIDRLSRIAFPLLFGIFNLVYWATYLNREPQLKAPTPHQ
Sequence of Delta-type opioid receptor (P41143 whole entry): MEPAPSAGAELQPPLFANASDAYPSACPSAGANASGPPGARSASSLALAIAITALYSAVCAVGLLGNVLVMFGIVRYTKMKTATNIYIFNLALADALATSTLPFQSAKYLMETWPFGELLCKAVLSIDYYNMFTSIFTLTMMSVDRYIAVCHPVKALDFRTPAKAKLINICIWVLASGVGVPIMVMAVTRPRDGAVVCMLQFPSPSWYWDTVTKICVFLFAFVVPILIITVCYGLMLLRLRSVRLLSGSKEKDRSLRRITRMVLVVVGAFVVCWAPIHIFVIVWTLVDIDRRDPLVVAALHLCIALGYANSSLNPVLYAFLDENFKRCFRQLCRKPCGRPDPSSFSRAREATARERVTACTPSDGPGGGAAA

In general, AC50 refers to the concentration at which the activity in the assay is half-maximal. The low end stands for greater potency, the high end for weaker potency. `CC(=O)OC(C)C[N+](C)(C)C` (configuration not stated) [METHACHOLINE] yielded an AC50 in [1] of 0.0079 µM. In other words, the single-digit nanomolar range.
With `NC(=O)c1cccc2cn(-c3ccc([C@@H]4CCCNC4)cc3)nc12` [NIRAPARIB], the AC50 in experiment [2] and in [1] was > 30 µM each time.
With `O=C(O)CCCN1CCC(O[C@@H](c2ccc(Cl)cc2)c2ccccn2)CC1` [BEPOTASTINE], the AC50 in experiment [2] and in experiment [1] was > 30 µM in each case.
Turning to `CCC(Cc1c(I)cc(I)c(N)c1I)C(=O)O` (configuration not stated) [IOPANOIC ACID], the AC50 in experiment [2] is 14.5 µM; in [1] it was > 30 µM.
On the same counts, the results for `NCc1ccccc1CC(=O)N[C@@H]1C(=O)N2C(C(=O)O)=C(CSc3nnnn3CC(=O)O)CS[C@H]12` [CEFORANIDE] are > 10 µM and > 30 µM.
`O=C1NCC2(CCN(CCc3ccccc3)CC2)O1` [FENSPIRIDE]: the AC50 in experiment [2] and in [1] was > 30 µM in each case.
Consider `CC/C=C\C/C=C\C/C=C\C/C=C\C/C=C\CCCC(=O)O` [ICOSAPENT], for which the AC50 in [2] and in experiment [1] was > 30 µM throughout.
Consider `C[C@@H]1C[C@H]2[C@@H]3C[C@H](F)C4=CC(=O)C(Cl)=C[C@]4(C)[C@@]3(F)[C@@H](O)C[C@]2(C)[C@@]1(O)C(=O)CO` [HALOMETASONE], for which the AC50 in experiment [2] was 13.1 µM; in experiment [1] it was > 30 µM.
Turning to `CC(C(=O)O)c1ccc2c(c1)Cc1cccnc1O2` (configuration not stated) [PRANOPROFEN], the AC50 in [2] and in experiment [1] was > 30 µM throughout.
Regarding `O=[N+]([O-])c1cncn1CCN1CCOCC1` [NIMORAZOLE], the AC50 in experiment [2] and in experiment [1] was > 30 µM each time.
As to `CN1CCC2=C(C1)c1ccccc1Cc1ccccc12` [SETIPTILINE], the AC50 in experiment [2] is 8.28 µM; in experiment [1] it was > 30 µM.
For `CCCCN(CCCC)CCCOC(=O)c1ccc(N)cc1` [BUTACAINE], the half-maximal activity concentration (AC50) in experiment [2] and in [1] was > 30 µM throughout.
For `Nc1nc(-n2cc(C(=O)O)c(=O)c3cc(F)c(N4CC(O)C4)c(Cl)c32)c(F)cc1F` [DELAFLOXACIN], the AC50 in [2] and in [1] was > 30 µM in each case.
For `NS(=O)(=O)c1cc(-c2nnn[nH]2)c(NCc2cccs2)cc1Cl` [AZOSEMIDE], the AC50 on Histamine H1 receptor is > 30 µM; at Adenosine receptor A3, > 30 µM; in experiment [3] it was 19 µM; in [4], > 30 µM; in experiment [5] it was > 30 µM; in experiment [6], > 30 µM. In addition, the AC50 in experiment [7] and in [8] was > 30 µM in each case.
As for `CCC1C(C)=NN=C(c2ccc(OC)c(OC)c2)c2cc(OC)c(OC)cc21` (configuration not stated) [TOFISOPAM], the results for the AC50 in experiment [2] and in [1] were 25.3 µM and > 30 µM, respectively.
As to `C=C1C[C@@H]2[C@H](CC[C@]3(C)C(=O)CC[C@@H]23)[C@@]2(C)C=CC(=O)C=C12` [EXEMESTANE], the AC50 at Histamine H1 receptor is > 10 µM; on Adenosine receptor A3, > 30 µM; in experiment [3], > 30 µM; in experiment [4], > 10 µM; in [5], > 10 µM; in experiment [6], > 30 µM. In addition, the AC50 in [7] and in experiment [8] was > 10 µM in each case.
Consider `COc1cc2c(cc1OC)[C@H]1C[C@@H](OC(=O)[C@@H](N)C(C)C)[C@H](CC(C)C)CN1CC2` [VALBENAZINE], for which the results for the concentration at half-maximal activity (AC50) in experiment [2] and in experiment [1] were > 10 µM and > 30 µM, respectively.
For `C[C@@H]1C[C@H]2[C@@H]3C[C@H](F)C4=CC(=O)C=C[C@]4(C)[C@@]3(F)[C@@H](O)C[C@]2(C)[C@@]1(O)C(=O)COC(=O)C(C)(C)C` [FLUMETHASONE PIVALATE], the AC50 in experiment [2] and in experiment [1] was > 30 µM in each case.
For the molecule `C[C@@H]1O[C@@H](OC[C@H]2O[C@@H](Oc3c(-c4ccc(OCCO)c(OCCO)c4)oc4cc(OCCO)cc(O)c4c3=O)[C@H](O)[C@@H](O)[C@@H]2O)[C@H](O)[C@H](O)[C@H]1O` [TROXERUTIN], the AC50 in [2] and in experiment [1] was > 30 µM throughout.
In the case of `CC(=O)N[C@H]1[C@H]([C@H](O)[C@H](O)CO)OC(C(=O)O)=C[C@@H]1N=C(N)N` [ZANAMIVIR], the concentration at half-maximal activity (AC50) is > 30 µM on Histamine H1 receptor; > 30 µM on Adenosine receptor A3; > 30 µM in experiment [3]; > 30 µM in [4]; > 10 µM in experiment [5]; > 30 µM in experiment [6]. For the same molecule, the AC50 was > 30 µM in experiment [7] and > 10 µM in experiment [8].
Turning to `N[C@@H](CSCC(=O)O)C(=O)O` [CARBOCYSTEINE], the AC50 (on Histamine H1 receptor; at Adenosine receptor A3; in experiment [3]; in experiment [4]; in [5]; in experiment [6]) was > 30 µM throughout. Also, the AC50 in experiment [7] and in experiment [8] was > 30 µM throughout.
On to `NS(=O)(=O)c1cc(Cl)c(Cl)c(S(N)(=O)=O)c1` [DICHLORPHENAMIDE], for which the AC50 at Histamine H1 receptor is > 10 µM; on Adenosine receptor A3 it was > 10 µM; in experiment [3], > 10 µM; in experiment [4], > 10 µM; in experiment [5], > 10 µM; in experiment [6] it was > 30 µM. Further, the AC50 in experiment [7] and in experiment [8] was > 10 µM throughout.
`COc1ccc2c(c1)OC(C)(C)C(c1ccccc1)C2c1ccc(OCCN2CCCC2)cc1` (configuration not stated) [ORMELOXIFENE] registered an AC50 in [1] of 10.5 µM.
Molecule `CCO[C@@H](Cc1ccc(OCCn2c(C)ccc2-c2ccc(SC)cc2)cc1)C(=O)O` [SAROGLITAZAR] had an AC50 in experiment [1] of 18.7 µM. Compared with the last molecule, the AC50 is about 1.8-fold higher.
Take `O=C(Cn1ccnc1[N+](=O)[O-])NCc1ccccc1` [BENZNIDAZOLE]: the AC50 (at Histamine H1 receptor; on Adenosine receptor A3; in experiment [3]; in experiment [4]; in experiment [5]; in experiment [6]) was > 30 µM throughout. Also, the AC50 in experiment [7] and in [8] was > 30 µM throughout.
On to `CN(C/C=C/c1ccccc1)Cc1cccc2ccccc12` [NAFTIFINE], for which the AC50 on Histamine H1 receptor was > 10 µM; on Adenosine receptor A3, > 30 µM; in experiment [3], 23.1 µM; in experiment [4] it was > 10 µM; in experiment [5], > 10 µM; in [6], > 30 µM. The AC50 in experiment [7] and in [8] was > 10 µM throughout.
Regarding `O=C(c1ccc(F)c(F)c1Nc1ccc(I)cc1F)N1CC(O)([C@@H]2CCCCN2)C1` [COBIMETINIB], the AC50 in [1] came out at 17.4 µM.
